Assay results published in patent US7550469B2, “Heterocyclic amide derivatives and their use as dopamine D3 receptor ligands” (Aventis Pharmaceuticals Inc., priority 2001, dated 2009).
Where two headings read alike, the source gives them in different places.

Target: T1, cloned human dopamine D3 receptors (Homo sapiens, UniProt P35462)
T1 construct: expressed in transfected cells; membrane homogenate
Assay: [N-Methyl-3H]Spiroperidol binding to cloned human dopamine D3 receptors (Protocol 1)
Procedure, shortened: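 Radioligand displacement with [N-methyl-3H]spiroperidol used a physiological-salt Tris buffer (0.05 M, pH 7.7; NaCl 120 mM, KCl 5 mM, CaCl2 2 mM, MgCl2 1 mM) and membranes of a high-expressing stable CHO clone carrying human D3. Total ligand concentration came from measured added CPM; 0.1% ascorbic acid was optional for oxidizable compounds.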

[1] = the 13th table, unit inferred, read-out: D3Ki
[2] = the 16th table, read-out: D3 Ki
[3] = the 14th table, read-out: D3 Ki
[4] = the 22nd table, read-out: D3 Ki
[5] = the 23rd table, read-out: D3 Ki
[6] = the 21st table, read-out: D3 Ki
[7] = the 18th table, read-out: D3 Ki
[8] = the 26th table, read-out: D3 Ki
[9] = the 15th table, read-out: D3 Ki

T1 sequence (P35462 whole entry): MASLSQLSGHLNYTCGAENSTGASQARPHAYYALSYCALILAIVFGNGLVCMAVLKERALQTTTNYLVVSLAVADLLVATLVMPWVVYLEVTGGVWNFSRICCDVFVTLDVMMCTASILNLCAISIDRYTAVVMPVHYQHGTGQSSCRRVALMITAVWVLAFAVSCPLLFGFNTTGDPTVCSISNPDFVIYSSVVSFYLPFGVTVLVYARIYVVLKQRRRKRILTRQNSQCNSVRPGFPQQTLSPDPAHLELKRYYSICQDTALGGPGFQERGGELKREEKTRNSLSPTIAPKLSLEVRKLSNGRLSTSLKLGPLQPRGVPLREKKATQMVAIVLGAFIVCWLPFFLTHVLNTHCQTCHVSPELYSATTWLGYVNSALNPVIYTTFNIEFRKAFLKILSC

SMILES: O=C(NCCCCN1CCCN(c2csc3cc(F)ccc23)CC1)c1cccnc1Cl [compound 822201]
- Ki [1]: 15 nM

SMILES: COc1ccc2cc(C(=O)NCCCCN3CCCN(c4csc5cc(F)ccc45)CC3)oc2c1 [compound 827122]
- Ki (Table 2, read-out: D3K1): 6.06 nM
- Ki [2]: 6.06 nM

SMILES: COc1ccc2[nH]c(C(=O)NCCCCCN3CCN(c4csc5cc(F)ccc45)CC3)cc2c1 [compound 826785]
- Ki [3]: 1.43 nM

SMILES: O=C(NCCCCN1CCC(c2noc3ccsc23)CC1)c1ccc(Cl)cc1 [compound 815151]
- Ki [1]: 136 nM

SMILES: O=C(NCCCCN1CCN(c2noc3ccsc23)CC1)c1ccc(F)cc1 [compound 829674]
- Ki [4]: 90.2 nM

SMILES: O=C(NC/C=C\CN1CCN(c2csc3cc(C(F)(F)F)ccc23)CC1)c1ccccn1 [compound 826335]
- Ki (read-out: D3K1): 42 nM

SMILES: O=C(NCCCCN1CCCN(c2csc3cc(F)ccc23)CC1)c1ccc2cc[nH]c2c1 [S977825]
- Ki [1]: 0.882 nM

SMILES: O=C(Cc1ccccc1Br)NCCCCN1CCCN(c2csc3cc(F)ccc23)CC1 [S982512]
- Ki [1]: 5.8 nM

SMILES: O=C(NCCCCN1CCN(c2c(Cl)sc3cc(F)ccc23)CC1)c1sc2ccccc2c1Cl [compound 815057]
- Ki (read-out: D3K1): 12.3 nM

SMILES: O=C(NCCCCN1CCN(c2c(Cl)sc3cc(C(F)(F)F)ccc23)CC1)c1ccco1 [compound 815576]
- Ki (read-out: D3K1): 63 nM

SMILES: O=C(NCCCCCN1CCC(c2noc3ccsc23)CC1)c1ccccc1[N+](=O)[O-] [compound 816207]
- Ki [1]: 182 nM

SMILES: Cc1ccc(Sc2cc(C(=O)NCCCCN3CCCN(c4csc5cc(C(F)(F)F)ccc45)CC3)ccn2)cc1 [S980659]
- Ki [1]: 110 nM

SMILES: Cc1ccccc1C(=O)NCCCCN1CCN(c2nn(C(=O)c3ccccc3C)c3ccsc23)CC1 [compound 825146]
- Ki [4]: 188 nM

SMILES: O=C(NCCCCN1CCCN(c2csc3cc(F)ccc23)CC1)c1cc2ccccc2s1 [compound 822158]
- Ki [1]: 1.1 nM

SMILES: FC(F)(F)Oc1cccc(CNC[C@@H]2C[C@H]2CN2CCN(c3csc4cc(C(F)(F)F)ccc34)CC2)c1 [compound 833067]
- Ki [5]: 54.9 nM

SMILES: C[C@@H]1CN(c2csc3cc(C(F)(F)F)ccc23)C[C@H](C)N1CCCCNC(=O)c1cccc2[nH]ccc12 [compound 826953]
- Ki [6]: 222 nM

SMILES: C[C@@H]1CN(c2csc3cc(C(F)(F)F)ccc23)C[C@H](C)N1CCCCNC(=O)c1cccs1 [compound 827046]
- Ki [6]: 56.9 nM

SMILES: O=C(NCCCCN1CCCN(c2csc3cc(F)ccc23)CC1)c1cc2cc(O)ccc2[nH]1 [compound 817270]
- Ki [1]: 0.448 nM

SMILES: FC(F)(F)c1ccc2c(N3CCN(CC4CC4CNCCCN4CCCCC4)CC3)csc2c1 (racemic) [compound 832659]
- Ki [5]: 28.3 nM

SMILES: O=C(NCCCCN1CCCN(c2csc3cc(F)ccc23)CC1)c1cccc2ccccc12 [compound 822153]
- Ki [1]: 6.1 nM

SMILES: CCNc1ccccc1C(=O)NCCCCN1CCCN(c2csc3cc(F)ccc23)CC1 [compound 817267]
- Ki (Table 2, read-out: D3K1): 3.03 nM
- Ki [2]: 3.03 nM

SMILES: O=C(Cc1ccc(C(F)(F)F)cc1)NCCCCN1CCCN(c2csc3cc(F)ccc23)CC1 [S982508]
- Ki [1]: 40.9 nM

SMILES: O=C(NCCCCCN1CCCN(c2csc3cc(F)ccc23)CC1)c1cccc2ccccc12 [S984489]
- Ki [1]: 41.5 nM

SMILES: O=C(NCCCCN1CCN(c2csc3cc(C(F)(F)F)ccc23)CC1)c1cccs1 [81708A]
- Ki (read-out: D3K1): 4.5 nM

SMILES: O=C(NC/C=C\CN1CCN(c2csc3cc(C(F)(F)F)ccc23)CC1)c1cccc(Cl)c1 [compound 826340]
- Ki (read-out: D3K1): 73 nM

SMILES: O=C(NC/C=C/CN1CCN(c2csc3cc(C(F)(F)F)ccc23)CC1)C1CCCC1 [compound 827712]
- Ki (read-out: D3K1): 66 nM

SMILES: O=C(N[C@H](CO)CCCN1CCN(c2csc3cc(C(F)(F)F)ccc23)CC1)c1ccc2[nH]ccc2c1 [compound 815700]
- Ki (Table 2, read-out: D3K1): 128 nM
- Ki (read-out: D3K1): 128 nM
- Ki [3]: 128 nM

SMILES: O=C(NC/C=C/CN1CCN(c2csc3cc(C(F)(F)F)ccc23)CC1)c1cc(F)cc(F)c1 [compound 827716]
- Ki (read-out: D3K1): 98 nM

SMILES: O=C(N[C@H](CO)CCCN1CCN(c2csc3cc(C(F)(F)F)ccc23)CC1)c1ccc2ccccc2c1 [compound 815697]
- Ki (Table 2, read-out: D3K1): 294 nM
- Ki (read-out: D3K1): 294 nM
- Ki [3]: 294 nM

SMILES: O=C(NCc1sccc1CN1CCN(c2csc3cc(F)ccc23)CC1)c1cc2ccccc2s1 [818321G]
- Ki [7]: 78.7 nM

SMILES: COc1ccccc1N1CCN(C[C@@H]2C[C@H]2CN2CCN(c3csc4cc(C(F)(F)F)ccc34)CC2)CC1 [compound 833379]
- Ki [5]: 0.84 nM

SMILES: O=C(NC[C@@H]1CCCC[C@H]1CN1CCN(c2csc3cc(C(F)(F)F)ccc23)CC1)c1cc2ccccc2[nH]1 [compound 826285]
- Ki (read-out: D3K1): 170 nM

SMILES: O=C(NCCCCCN1CCN(c2csc3cc(C(F)(F)F)ccc23)CC1)c1ccc2[nH]ccc2c1 [compound 826799]
- Ki (read-out: D3K1): 6.48 nM
- Ki [3]: 6.48 nM

SMILES: O=C(NC/C=C/CN1CCN(c2csc3cc(C(F)(F)F)ccc23)CC1)c1ccc(OC(F)(F)F)cc1 [compound 827726]
- Ki (read-out: D3K1): 92 nM

SMILES: COc1cccc2oc(C(=O)NCCCCN3CCCN(c4csc5cc(F)ccc45)CC3)cc12 [compound 827128]
- Ki (Table 2, read-out: D3K1): 19.1 nM
- Ki [2]: 19.1 nM

SMILES: Cc1ccc(Sc2ncccc2C(=O)NCCCCN2CCCN(c3csc4cc(F)ccc34)CC2)cc1 [S981835]
- Ki [1]: 1.2 nM

SMILES: O=C(NC/C=C\CN1CCN(c2csc3cc(C(F)(F)F)ccc23)CC1)C1CCC1 [compound 826333]
- Ki (read-out: D3K1): 24 nM

SMILES: O=C(NCCCCN1CCN(c2c(Cl)sc3cc(F)ccc23)CC1)c1cccs1 [compound 815058]
- Ki (read-out: D3K1): 4.3 nM

SMILES: O=C(NC/C=C\CN1CCN(c2csc3cc(C(F)(F)F)ccc23)CC1)c1ccsc1 [compound 826332]
- Ki (read-out: D3K1): 20 nM

SMILES: c1ccc(OCCNCC2CC2CN2CCC(c3noc4ccsc34)CC2)cc1 (racemic) [832296FH]
- Ki [5]: 126 nM

SMILES: O=C(NCC1CC1CN1CCCN(c2csc3cc(F)ccc23)CC1)c1ccc(-c2ccccc2)cc1 (racemic) [compound 830406]
- Ki (the 17th table, read-out: D3 Ki): 27 nM

SMILES: O=C(NC/C=C/CN1CCN(c2csc3cc(C(F)(F)F)ccc23)CC1)c1cccc(Cl)c1 [compound 827718]
- Ki (read-out: D3K1): 150 nM

SMILES: CCCCOc1ccc(C(=O)NCCCCN2CCN(c3c(Cl)sc4cc(C(F)(F)F)ccc34)CC2)cc1 [compound 815564]
- Ki (read-out: D3K1): 159 nM

SMILES: O=C(NCCCCN1CCCN(c2csc3cc(F)ccc23)CC1)c1cccc2cccnc12 [compound 817266]
- Ki (Table 2, read-out: D3K1): 8.73 nM
- Ki [2]: 8.73 nM

SMILES: O=C(NC(CO)CCCN1CCN(c2csc3cc(C(F)(F)F)ccc23)CC1)c1cc2ccccc2s1 (stereo not shown) [compound 815684]
- Ki (Table 2, read-out: D3K1): 208 nM
- Ki (read-out: D3K1): 208 nM
- Ki [3]: 208 nM

SMILES: Cc1ccc2oc(C(=O)NCCCCN3CCCN(c4csc5cc(F)ccc45)CC3)cc2c1 [compound 827129]
- Ki (Table 2, read-out: D3K1): 7.75 nM
- Ki [2]: 7.75 nM

SMILES: CC[C@H]1CC[C@H](NCC2(CCN3CCC(c4noc5ccsc45)CC3)CC2)CC1 [compound 832401]
- Ki [5]: 124 nM

SMILES: CC1(C)C(CNC(=O)c2ccccc2)C1CN1CCN(c2csc3cc(C(F)(F)F)ccc23)CC1 (stereo not shown) [compound 826275]
- Ki (read-out: D3K1): 92 nM

SMILES: COc1ccccc1C(=O)NCc1sccc1CN1CCN(c2csc3cc(F)ccc23)CC1 [compound 826302]
- Ki [7]: 16 nM

SMILES: O=C(NCCCCN1CCCN(c2csc3cc(F)ccc23)CC1)c1cc2ccccc2[nH]1 [S977818]
- Ki [1]: 1.85 nM

SMILES: O=C(NCc1sccc1CN1CCN(c2csc3cc(F)ccc23)CC1)c1sccc1-n1cccc1 [compound 826318]
- Ki [7]: 90 nM

SMILES: O=C(NC/C=C/CN1CCN(c2csc3cc(C(F)(F)F)ccc23)CC1)C1CCC1 [compound 827711]
- Ki (read-out: D3K1): 230 nM

SMILES: O=C(NC/C=C\CN1CCN(c2csc3cc(C(F)(F)F)ccc23)CC1)c1cccnc1 [compound 826336]
- Ki (read-out: D3K1): 41 nM

SMILES: O=C(NCCCCCCN1CCN(c2csc3cc(C(F)(F)F)ccc23)CC1)c1cc2ccccc2[nH]1 [compound 816315]
- Ki (Table 2, read-out: D3K1): 3.7 nM
- Ki (read-out: D3K1): 3.7 nM
- Ki [3]: 3.7 nM

SMILES: O=C(Nc1cccc(CN2CCN(c3csc4cc(F)ccc34)CC2)c1)c1ccc(OC(F)(F)F)cc1 [compound 822162]
- Ki (the 19th table, read-out: D3 Ki): 380 nM

SMILES: COc1cc(OC)cc(C(=O)NCCCCN2CCN(c3csc4cc(C(F)(F)F)ccc34)CC2)c1 [compound 815543]
- Ki (read-out: D3K1): 32 nM

SMILES: C[C@@H]1CN(c2csc3cc(C(F)(F)F)ccc23)C[C@H](C)N1CCCCNC(=O)c1cc2ccccc2n1C [compound 826950]
- Ki [6]: 81.2 nM

SMILES: O=C(NCc1sccc1CN1CCN(c2csc3cc(F)ccc23)CC1)c1cc(-c2ccco2)nc2ccccc12 [compound 826319]
- Ki [7]: 273 nM

SMILES: C[C@@H]1CN(c2csc3cc(C(F)(F)F)ccc23)C[C@H](C)N1CCCCNC(=O)c1cccc(C(F)(F)F)c1 [compound 827043]
- Ki [6]: 322 nM

SMILES: O=C(NCCCCCN1CCCN(c2csc3cc(F)ccc23)CC1)c1ccc(OC(F)(F)F)cc1 [S9894488]
- Ki [1]: 23.8 nM

SMILES: OC(CCN1CCC(c2noc3ccsc23)CC1)CN1CCC(Cc2ccccc2)CC1 (stereo not shown) [compound 831944]
- Ki [8]: 38.5 nM

SMILES: CS(=O)(=O)c1sc(C(=O)NCc2sccc2CN2CCN(c3csc4cc(F)ccc34)CC2)c2c1C=CCC2 [compound 826315]
- Ki [7]: 31 nM

SMILES: Cc1ccccc1C(=O)NCCCCCCN1CCN(c2csc3cc(C(F)(F)F)ccc23)CC1 [compound 826753]
- Ki (read-out: D3K1): 4.4 nM
- Ki [3]: 4.4 nM

SMILES: OC(CCN1CCC(c2noc3ccsc23)CC1)CN1CCOCC1 (stereo not shown) [compound 831940]
- Ki [8]: 356 nM

SMILES: O=C(NCCCCN1C2CCC1CC(c1noc3ccccc13)C2)c1ccc(C(F)(F)F)cc1 (stereo not shown) [compound 816530]
- Ki [9]: 110 nM

SMILES: O=C(NCCCCCCN1CCN(c2csc3cc(C(F)(F)F)ccc23)CC1)c1c[nH]c2ccccc12 [compound 826740]
- Ki (read-out: D3K1): 44 nM
- Ki [3]: 44 nM

SMILES: O=C(NCCCCN1CCC(c2noc3ccsc23)CC1)c1ccc2ccccc2c1 [compound 81514]
- Ki [1]: 191 nM

SMILES: OC(CCN1CCC(c2noc3ccsc23)CC1)CN1CCc2ccccc2C1 (stereo not shown) [compound 831941]
- Ki [8]: 161 nM

SMILES: CCCCCCc1ccc(C(=O)NCCCCN2C3CCC2CC(c2noc4ccccc24)C3)cc1 (stereo not shown) [compound 816527]
- Ki [9]: 64.8 nM
